According to patent US5194446A, “Compounds having one or more aminosulfaonyloxy radicals useful as pharmaceuticals” (A. H. Robins Company, Incorporated, priority 1991, dated 1993):

How the values were obtained:
[1] = hygroscopicity observation; type: physicochemical; conditions: white crystals
[2] = tested on: seventeen (17) days-old chick embryo calvaria; experiment: bone resorption in vitro induced by parathyroid hormone (PTH); type: cell-based; conditions: Gallus gallus; for inhibition at 100 µM: compound 10^-4 M; for inhibition at 10 µM: compound 10^-5 M; for inhibition at 1 µM: compound 10^-6 M
Procedure: In order to determine the effectiveness of Formula I compounds in the treatment and/or prevention of osteoporosis in mammalian species an in vitro experimental procedure was utilized to measure bone resorption. The procedure utilized was as follows.
Bone resorption in vitro was measured essentially as outlined by Hall and Kenny (Pharmacology 30:339-347, 1985), except however, seventeen (17) days-old chick embryo calvaria were utilized instead of mice calvaria. Resorption is defined as the amount of calcium (mg/ml) in the medium of vehicle-treated cultures. The effects of the Formula I test compounds were determined by monitoring the effect on calcium concentrations in presence of drug relative to control calcium concentrations at a particular PTH (parathyroid hormone) concentration. The % inhibition of resorption induced by parathyroid hormone by Formula I compounds was calculated as follows: [formula] where Ca (PTH)=Ca (PTH)-Ca (Vehicle medium), and
Ca (PTH+Formula I compound)=Ca (PTH+Formula I compound)

[3] = tested on: adjuvant-induced arthritis test model in rats; experiment: adjuvant-induced arthritis test model in rats; type: in vivo, rat (adult, female Lewis)
Procedure: The test utilized to evidence antiarthritic properties of the compounds of Formula I is an adjuvant-induced arthritis test model in rats. Adjuvant arthritis was induced in adult, female Lewis rats as described by Walz et al. J. Pharmac. Exp. Ther. 178:223-231 (1971). Briefly, arthritis was induced in the rats by injection of 0.05 ml of a 1.5% suspension of killed Mycobacterium Butyricum into the right rear foot pad of each rat. Eighteen days later, those rats having a left hind paw volume (measured by mercury displacement up to a reference tatoo mark placed on the leg on Day 0) of 2.4 ml or greater were randomly assigned to treatment groups. The test, reference and control articles (as solutions or suspensions in 0.5% Tween 80) were given by gavage, beginning on Day 18 after adjuvant administration and for 5 days a week (Monday through Friday) through Day 49. Paw volumes were recorded on days 18, 29 and 50 after adjuvant injection. On Day 50, the rats were killed (carbon dioxide) and the uninjected hind limb was x-rayed and scored for bone damage on an arbitrary 1 (no damage) to 10 (maximum damage) scale.
Data collected for hind paw volumes and bone damage were analyzed by the Dunnett's t-test [Dunnett, C. W., J. Amer. Stat. Assoc., 50:1096-1121 (1955)], comparing a positive control group with several treated groups.

hygroscopicity [1] | SMILES | inhibition at 100 µM ([2]; PTH 10^-7 M) [%] | inhibition at 100 µM ([2]; PTH 10^-8 M) [%] | inhibition at 100 µM ([2]; PTH 10^-9 M) [%] | inhibition at 100 µM ([2]; PTH 10^-10 M) [%] | inhibition at 10 µM ([2]; PTH 10^-7 M) [%] | inhibition at 10 µM ([2]; PTH 10^-8 M) [%] | inhibition at 10 µM ([2]; PTH 10^-9 M) [%] | inhibition at 10 µM ([2]; PTH 10^-10 M) [%] | inhibition at 1 µM ([2]; PTH 10^-7 M) [%] | inhibition at 1 µM ([2]; PTH 10^-8 M) [%] | inhibition at 1 µM ([2]; PTH 10^-9 M) [%] | inhibition at 1 µM ([2]; PTH 10^-10 M) [%] | inhibition at 0.1 µM ([2]; compound 10^-7 M, PTH 10^-8 M) [%] | reduction in paw edema, significance ([3]; 1 mg/kg to 100 mg/kg by gavage, Dunnett's t-test) | bone damage score ([3]; 1 (no damage) to 10 (maximum damage) scale, x-ray of uninjected hind limb, Day 50, dosage range 1 mg/kg to 100 mg/kg by gavage, controls scored 8 to 9) | reduction in bone damage, significance ([3]; vs. controls, 1 mg/kg to 100 mg/kg by gavage, Dunnett's t-test)
slightly hygroscopic | NS(=O)(=O)OCCN1CCCC1=O [Example 63, 1-[2-[(Aminosulfonyl)oxy]ethyl]-2-pyrrolidinone] | – | – | – | – | – | – | – | – | – | – | – | – | – | – | – | –
– | COc1ccccc1OCC(COS(N)(=O)=O)OS(N)(=O)=O (centres unmarked) [Example 3, 1-[(2-Methoxyphenoxy)methyl]-1,2-ethanediol bisulfamate (ester)] | 10 | 40.5 | 66.5 | 100 | 21 | 37 | 86 | 100 | 21 | 29 | 100 | 100 | 23 | significant | 5.4-5.9 | significant
